For the first experiment, the system named is A2780. The experiment is described as follows: Antiproliferative activity against human A2780 cells after 72 hrs. Format: functional, cell-based. The conditions noted are these: A2780, 72 h.
The IC50 is the midpoint of a concentration-inhibition curve. A high value points to weaker potency in that assay. As for `O=C1NCCc2[nH]c(-c3ccncn3)cc21`, the IC50 was 5500 nM. This lies in the single-digit micromolar range.
On the same count and under the same terms, then `O=C1NCc2[nH]c(-c3ccncc3)cc21`, with 4700 nM; and `O=C1NCCc2[nH]c(-c3ccncc3F)cc21`, with 200 nM.
The same measure, in the same setting: to `O=C1NCCc2[nH]c(-c3ccnc4[nH]ccc34)cc21` belongs greater than 10000 nM.
The same measure, in the same setting: then `Nc1ncc(Br)c(-c2cc3c([nH]2)CCNC3=O)n1`, with 800 nM; and `Nc1cc(-c2cc3c([nH]2)CCNC3=O)ccn1`, with greater than 10000 nM; and `O=C1NCCc2[nH]c3c(ccc4cnccc43)c21`, with 100 nM.

In a further experiment the target is Cell division cycle 7-related protein kinase (Homo sapiens, UniProt O00311).
Chain of Cell division cycle 7-related protein kinase (O00311 whole entry): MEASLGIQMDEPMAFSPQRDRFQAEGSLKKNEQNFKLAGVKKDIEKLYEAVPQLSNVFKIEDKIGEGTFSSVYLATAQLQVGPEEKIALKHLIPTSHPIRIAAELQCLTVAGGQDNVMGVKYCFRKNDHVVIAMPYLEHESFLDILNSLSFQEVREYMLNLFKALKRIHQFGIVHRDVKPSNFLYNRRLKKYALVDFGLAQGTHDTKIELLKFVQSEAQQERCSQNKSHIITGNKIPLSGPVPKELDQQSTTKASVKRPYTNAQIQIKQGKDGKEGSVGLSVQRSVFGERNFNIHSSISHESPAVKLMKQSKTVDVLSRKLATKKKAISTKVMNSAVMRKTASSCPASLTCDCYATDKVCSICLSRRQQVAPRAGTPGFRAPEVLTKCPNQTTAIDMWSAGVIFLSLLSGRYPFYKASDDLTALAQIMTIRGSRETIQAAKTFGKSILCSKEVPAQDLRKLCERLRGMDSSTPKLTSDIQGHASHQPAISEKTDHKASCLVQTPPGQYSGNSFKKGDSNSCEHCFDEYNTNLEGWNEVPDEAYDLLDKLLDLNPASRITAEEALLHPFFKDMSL
Details: not given
The compound `O=C1NCCc2[nH]c(-c3ccncn3)cc21` gave an IC50 of 20 nM. In other words, the double-digit nanomolar range.
For the compound `O=C1NCCc2c1cc(-c1ccncc1)n2CC(F)(F)F`, the IC50 worked out at 160 nM.
The same measure, in the same setting: then `CCn1c(-c2ccnc(N)n2)cc2c1CCNC2=O`, with 8 nM.
`O=C1NCCc2[nH]c(-c3ccnc(NCc4ccccc4)n3)cc21` registered an IC50 of 220 nM. This IC50 lies about 28-fold higher than the previous one.
`CC(C)C(=O)Nc1nccc(-c2cc3c([nH]2)CCNC3=O)n1` had a half-inhibitory concentration (IC50) of 1400 nM.
The same measure, in the same setting: then `Nc1nccc(-c2cc3c(n2CC2CC2)CCNC3=O)n1`, with 4 nM.
Still for that read-out and setting: to `Nc1nccc(-c2cc3c(n2CCF)CCNC3=O)n1` belongs 3 nM.
The compound `CC(=O)Nc1nccc(-c2cc3c([nH]2)CCNC3=O)n1` registered an IC50 of 323 nM.
`O=C1NCCn2nc(-c3ccncc3)cc21` came in with an IC50 of 210 nM. Compared with the last compound, the IC50 is about 1.5-fold lower.
In turn, `O=C1NCCc2oc(-c3ccncc3)cc21` returned an IC50 of 201 nM.
In the case of `O=C1NCc2[nH]c(-c3ccncc3)cc21`, the IC50 came to 27 nM.
On the same count and under the same terms, then `O=C1NCCCc2[nH]c(-c3ccncc3)cc21`, with 158 nM; and `CCn1c(-c2ccncc2)cc2c1CCNC2=O`, with 67 nM.
On the same count and under the same terms, then `O=C1NCCc2c1cc(-c1ccncc1)n2CCO`, with 3300 nM; and `Nc1nccc(-c2cc3c(n2CCO)CCNC3=O)n1`, with 138 nM.
In turn, `CC(C)n1c(-c2ccnc(N)n2)cc2c1CCNC2=O` came in with an IC50 of 42 nM.
Take `CCCCn1c(-c2ccnc(N)n2)cc2c1CCNC2=O`: the IC50 came out at 23 nM.
Still for that read-out and setting: then `Nc1nccc(-c2cc3c(n2-c2ccccc2)CCNC3=O)n1`, with greater than 5000 nM.
`Nc1nccc(-c2cc3c(n2Cc2ccccc2)CCNC3=O)n1` came in with an IC50 of 290 nM.
The same measure, in the same setting: to `CCCNc1nccc(-c2cc3c([nH]2)CCNC3=O)n1` belongs 259 nM; to `CC(C)CNc1nccc(-c2cc3c([nH]2)CCNC3=O)n1`, 636 nM; to `O=C1NCCc2[nH]c(-c3ccnc(NCC4CCCCC4)n3)cc21`, 655 nM.
As for `Cn1c(-c2ccncc2)cc2c1CCNC2=O`, inhibition was half-maximal at 404 nM (IC50). This IC50 lies about 1.6-fold lower than the previous one.
Still for that read-out and setting: to `O=C1NCCc2[nH]c(-c3ccncc3F)cc21` belongs 9 nM.
The same measure, in the same setting: to `O=C1NCCc2[nH]c(-c3ccnc4[nH]ccc34)cc21` belongs 14 nM; to `Nc1ncc(Br)c(-c2cc3c([nH]2)CCNC3=O)n1`, 4 nM.
On the same count and under the same terms, then `Nc1nccc(-c2c[nH]c3c2C(=O)NCC3)n1`, with greater than 5000 nM; and `O=C1NCCc2[nH]c(-c3ncnc4[nH]cnc34)cc21`, with 178 nM.
For `O=C1NCCc2[nH]c(-c3ccccc3)cc21`, the IC50 is greater than 5000 nM.
Still for that read-out and setting: then `O=C1NCCc2[nH]ccc21`, with greater than 5000 nM; and `Nc1cc(-c2cc3c([nH]2)CCNC3=O)ccn1`, with 28 nM.
Still for that read-out and setting: then `O=C1NCCc2[nH]c(-c3cccnc3)cc21`, with greater than 5000 nM.
The compound `Cc1c(-c2ccncc2)[nH]c2c1C(=O)NCC2` returned an IC50 of 45 nM. This lies in the double-digit nanomolar range.
The compound `O=CN1CCc2[nH]c(-c3ccncc3)cc2C1=O` displayed an IC50 of 863 nM.
Turning to `Nc1nccc(-c2cc3c(n2C2CCCCC2)CCNC3=O)n1`, the half-maximal inhibitory concentration (IC50) is greater than 5000 nM.
Still for that read-out and setting: to `Cn1c(-c2ccnc(N)n2)cc2c1CCNC2=O` belongs 88 nM; to `CCCn1c(-c2ccnc(N)n2)cc2c1CCNC2=O`, 12 nM; to `Nc1nccc(-c2cc3c(n2C2CCC2)CCNC3=O)n1`, 14 nM.
In turn, `O=C1NCCc2[nH]c3c(ccc4cnccc43)c21` had a half-inhibitory concentration (IC50) of 2 nM. This IC50 is about 7-fold lower than that of the compound before.
Same read-out and setting: then `CC(C)Cn1c(-c2ccnc(N)n2)cc2c1CCNC2=O`, with 13 nM; and `Nc1nccc(-c2cc3c(n2CCCC(F)(F)F)CCNC3=O)n1`, with 47 nM; and `CN1CCC(n2c(-c3ccnc(N)n3)cc3c2CCNC3=O)CC1`, with 120 nM.
Still for that read-out and setting: then `O=C(Nc1nccc(-c2cc3c([nH]2)CCNC3=O)n1)c1ccccc1`, with 262 nM; and `Nc1nccc(-c2cc3c([nH]2)CCNC3=O)n1`, with 7 nM.
The same measure, in the same setting: to `Nc1nccc(-c2cc3c(n2CC(F)(F)F)CCNC3=O)n1` belongs 5 nM.

(Values after ChEMBL document CHEMBL1140746, “Cdc7 kinase inhibitors: pyrrolopyridinones as potential antitumor agents. 1. Synthesis and structure-activity relationships” (J Med Chem, 2008).)
